“Also recorded” adds a separate entry of the source.
What was measured:
[1] = tested on: binocular rivalry dynamics; assay: Binocular rivalry task, double-blind placebo-controlled crossover, before and 3 h after donepezil or placebo; type: in vivo, human
Text: The binocular rivalry task consisted of a dichoptic stimulus where participants viewed a left-tilted grating in one eye and a right-tilted grating in the other for 90 s, continuously indicating via key-press whether they were seeing (1) the left eye's image, (2) the right eye's image, (3) a piecemeal mixture of the two images, or (4) a superimposed mixture of the two images (FIG. 1). This task was used to better characterize the mixed percepts while also encouraging participants not to miscategorize a mixed percept as exclusive.
Binocular rivalry task. A previously developed (Skerswetat et al., 2018) binocular rivalry task was adapted to quantify the fractions and median durations of exclusive, piecemeal, superimposition, and overall mixed percepts (for illustrations, see FIG. 1B). At the beginning of each session, participants were shown images on a document that illustrated the differences between the left-oriented, right-oriented, and superimposition versus piecemeal mixed percepts. Participants were told that they would see a dynamic stimulus during the experiment and that their task was to track what they were seeing, with particular attention to timeliness and accuracy.
Participants were given the option to continuously indicate whether they were seeing either (1) an exclusively left-tilted grating, (2) an exclusively right-tilted grating, (3) a superimposition mixed percept, or (4) a piecemeal mixed percept. Participants used three adjacent keys for the task, using the left to indicate exclusive left-tilt, right for right-tilt, a holding down a combination of the left and right keys for the piecemeal percepts, and the middle key for the superimposition percepts. It was specified that the criterion for exclusive percepts should be ˜90% left or right oriented.
Experimental design and statistical analysis. […] Group assignment was counterbalanced across participants to control for possible session-order effects. The experimenter was not aware of the treatment condition of the two group assignments until after data collection was complete. For safety purposes, the experimenter recorded the participant's systolic blood pressure at baseline and monitored blood pressure levels throughout the experiment.
The general protocol of each experimental block is outlined in FIG. 1A. Each block consisted of two binocular rivalry runs followed by two rivalry replay runs, each lasting 90 s.
Each run (rivalry and replay) began with a dichoptic nonius cross presented inside a 3° oval surrounded by a black-and-white noise (1 cycle/degree) frame (side=10°). The observer was asked to make keypresses to adjust the position of the two frames to calibrate the optimal position for comfortable fusion. After confirmation, the participant was instructed to fixate at a fixation dot (0.2°) and place their hands on the appropriate keys to begin responding to the rivalry task. After a keypress, the dichoptic stimulus appeared and participants began responding to what they were observing on the monitor using the keypress instructions provided at the beginning of each session. Subsequent runs were initiated after a brief break where subjects viewed a mean-gray background screen. […] During the incubation period, subjects were instructed to keep both eyes open and do normal activities such as watching a movie or doing computer work in a well-lit room.
Baseline and posttreatment measurements were drawn from four experimental blocks. A mandatory 2-min break was implemented between each experimental block to prevent fatigue.

[2] = tested on: replay rivalry criterion and response latency; assay: Rivalry replay control (criterion for mixed percept and response latency); type: in vivo, human; conditions: donepezil 5 mg oral vs placebo; F(1,22)=1.4
Text: To ensure any treatment effects were the result of changes in visual neural activity as opposed to changes in motor or executive function, a rivalry replay control experiment was implemented where participants watched computer-generated videos of simulated binocular rivalry, presented identically to both eyes. […] See FIG. 2 for additional details regarding the plots.
Rivalry replay control. A rivalry replay control condition was used to characterize the criterion for categorizing a percept as mixed and to quantify the latency of binocular rivalry responses (Robertson et al., 2013, 2016). The replay control consisted of computer-generated videos presented binocularly, where the stimulus was oscillated from left-oriented gratings to right-oriented gratings along a continuous scale, such that the midpoint of this oscillation would produce a complete mixture of the two gratings. […]
In addition, the overall rate of rivalry, defined as the total number of switches between the exclusive percepts divided by the run duration (Robertson et al., 2013, 2016) was extracted. In order to quantify the magnitude of the effect of the two treatment conditions relative to baseline, mean posttreatment values were divided by the mean baseline values to obtain post/pre ratios for each dependent variable across both experimental conditions. […]

visual function = conditions: cited from earlier work

Q: Which “overall effect on binocular rivalry dynamics (repeated measures MANOVA of post/pre values)” value ([1]; donepezil 5 mg oral vs placebo, F(1,22)=2.68, p=0.04) does the source give for COc1cc2c(cc1OC)C(=O)C(CC1CCN(Cc3ccccc3)CC1)C2 (stereo not drawn) [donepezil] here?
A: The value was “significantly altered binocular rivalry dynamics”.

Q: And the “participants with increases in the fraction of mixed visibility” value ([1]; donepezil 5 mg oral, 3 h, 23 participants)?
A: The value was 19 out of 23.

Q: And the “individuals exhibiting donepezil-induced increases of 0.50% in fraction of mixed visibility” value ([1]; donepezil 5 mg oral, 3 h, of the 19 participants with increases)?
A: The value was “eight”.

Q: And the “decrease of rate of binocular rivalry” value ([1]; po, 5 mg, 3 h)?
A: The value was 36%.

Q: What about the “enhancement of fraction of aggregate mixed visibility during rivalry” value ([1]; po, 5 mg, 3 h) of the same molecule?
A: Its value is 43%.

Q: And the “enhancement of fraction visibility of superimposition percepts” value ([1]; po, 5 mg, 3 h)?
A: Its value is 70%.

Q: What about the “increase of median duration of mixed visibility” value ([1]; po, 5 mg, 3 h) of the same molecule?
A: Its value is 20%.

Q: And the “increase of median duration of piecemeal percepts” value ([1]; po, 5 mg, 3 h)?
A: The value was 49%.

Q: And the “increase of median duration of superimposition percepts” value ([1]; po, 5 mg, 3 h)?
A: The value was 54%.

Q: And the “reduction of fraction of exclusive percepts” value ([1]; po, 5 mg, 3 h)?
A: Its value is 59%.

Q: And the “reduction of fraction of piecemeal percepts” value ([1]; po, 5 mg, 3 h)?
A: Its value is 15%.

Q: And the “reduction of median duration of exclusive percepts” value ([1]; po, 5 mg, 3 h)?
A: The value was 78%.

Q: What about the “effect on criterion and response latency in rivalry replay control (MANOVA)” value [2] of the same molecule?
A: Its value is “no observable differences; also recorded: not significant”.

Q: What about the “effect on monocular visual function using perceptual learning” value (visual function; Chung et al., 2017) of the same molecule?
A: The value was “not useful to improve monocular visual function”.

Q: And the “effect on perceptual eye dominance changes from short term patching of one eye” value (visual function; Sheynin et al., 2019)?
A: Its value is “impede perceptual eye dominance changes”.

Source: US20220323426A1, “CHOLINERGIC POTENTIATION OF BINOCULAR VISION” (THE ROYAL INSTITUTION FOR THE ADVANCEMENT OF LEARNING / …, priority 2019, published 2022)
